The source of these data is paper PMC11992618, “Development of cyclopeptide inhibitors specifically disrupting FXR–coactivator interaction in the intestine as a novel therapeutic strategy for MASH” (Life Metabolism, 2025).

Series [1] in a line: Tissue distribution (pharmacokinetic study). Format: in vivo, mouse. The note with it: ICR mice, single oral 20 mg/kg. How it is done:
Male ICR mice (6–8 weeks old, 18–22 g, Shanghai Lingchang BioTech Co., Ltd., China) were used in the pharmacokinetic study. The mice were administered with a single dose of cyclopeptide DC646 in 5% DMSO and 95% hydroxypropyl methylcellulose solution (0.5% hydroxypropyl methylcellulose in deionized water in weight ratio) (volume ratio) by oral gavage (20 mg/kg). Before the test, the mice were fasted for 12 h and were fed regularly 2 h after administration. Subsequently, 50 μL of blood was collected from the portal vein at 1, 4, 8, and 24 h in an EDTA-K2 nebulization tube. Samples were centrifuged at 12,000 rpm for 2 min to separate the plasma, which was then stored at −20°C to determine the drug concentration in the blood. After sacrifice, the livers and intestines were collected, washed with ice-cold saline, and stored at −20°C before compound measurement.

For another series, the target named is T1, PPARδ (Homo sapiens, UniProt Q03181).
T1 sequence (Q03181 1-441): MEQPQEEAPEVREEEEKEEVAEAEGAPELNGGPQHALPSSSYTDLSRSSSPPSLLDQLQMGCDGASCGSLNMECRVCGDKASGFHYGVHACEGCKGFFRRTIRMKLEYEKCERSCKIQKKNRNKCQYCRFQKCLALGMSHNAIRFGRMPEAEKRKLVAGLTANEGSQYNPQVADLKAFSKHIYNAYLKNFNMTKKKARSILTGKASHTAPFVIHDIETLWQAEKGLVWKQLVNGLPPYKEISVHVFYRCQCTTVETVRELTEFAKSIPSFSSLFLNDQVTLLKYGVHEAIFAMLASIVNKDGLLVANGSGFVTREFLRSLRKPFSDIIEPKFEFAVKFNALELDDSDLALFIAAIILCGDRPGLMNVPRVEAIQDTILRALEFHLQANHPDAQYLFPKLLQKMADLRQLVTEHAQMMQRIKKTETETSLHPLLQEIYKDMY
Nature of the series: PPARδ cell-based reporter assay. As to conditions: 10 μmol/L; inhibition of agonist-induced receptor activation. The source says: (§1) Inhibition% means inhibition percentage of agonist-induced receptor activation.

In the next series the target is T2, PPARγ (Homo sapiens, UniProt P37231).
T2 sequence (P37231 1-505): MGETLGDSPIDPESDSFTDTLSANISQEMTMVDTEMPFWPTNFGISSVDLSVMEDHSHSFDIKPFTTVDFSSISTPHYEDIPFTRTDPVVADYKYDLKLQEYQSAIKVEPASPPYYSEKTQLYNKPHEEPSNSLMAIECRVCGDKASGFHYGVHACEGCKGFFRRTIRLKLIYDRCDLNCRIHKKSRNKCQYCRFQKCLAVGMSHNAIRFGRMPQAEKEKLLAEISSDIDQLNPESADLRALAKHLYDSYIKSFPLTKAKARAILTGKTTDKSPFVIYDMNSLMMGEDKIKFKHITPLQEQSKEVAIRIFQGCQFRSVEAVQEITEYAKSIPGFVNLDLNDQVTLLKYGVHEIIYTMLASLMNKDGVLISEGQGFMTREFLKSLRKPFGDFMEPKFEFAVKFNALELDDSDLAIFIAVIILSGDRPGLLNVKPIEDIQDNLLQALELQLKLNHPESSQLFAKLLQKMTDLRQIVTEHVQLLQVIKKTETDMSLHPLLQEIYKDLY
Nature of the series: PPARγ cell-based reporter assay. The note with it: 10 μmol/L; inhibition of agonist-induced receptor activation.
Source text: as §1
For orientation: A reporter such as luciferase makes a cellular process visible.

For series [2], the target named is T3, human FXR alpha (hFXRα)-LBD / NcoR2 peptide (Homo sapiens, UniProt Q96RI1).
T3 construct: 100 nmol/L 6*His-hFXRα-LBD and 100 nmol/L biotinylated co-factor peptide
T3 sequence (Q96RI1 262-486 limits assumed): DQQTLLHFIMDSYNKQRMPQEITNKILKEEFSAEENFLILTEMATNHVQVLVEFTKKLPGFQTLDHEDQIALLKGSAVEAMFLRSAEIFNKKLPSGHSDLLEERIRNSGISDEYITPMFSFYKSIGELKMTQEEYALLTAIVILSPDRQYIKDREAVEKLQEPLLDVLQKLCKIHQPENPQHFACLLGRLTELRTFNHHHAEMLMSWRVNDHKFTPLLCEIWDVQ
Nature of the series: AlphaScreen assay, recruitment of corepressor peptide NcoR2 to His-hFXRα-LBD. Format: biochemical. The note with it: DC646 at 11 μmol/L, Ivermectin 5 μmol/L. As to the method: An AlphaScreen technology-based assay was performed according to the manufacturer’s instructions with a minor revision. Briefly, the experiment was conducted with compounds at the indicated concentrations, 100 nmol/L 6*His-hFXRα-LBD and 100 nmol/L biotinylated co-factor peptide in the buffer containing 50 mmol/L MOPS, 50 μmol/L CHAPS, 50 mmol/L NaF, and 0.1 mg/mL BSA, pH 7.4. The mixture was incubated with 50 μg/mL nickel acceptor beads and 50 μg/mL streptavidin donor beads in a 384-well plate under green light in the dark at room temperature, before conducting fluorescence measurement with excitation at 680 nm and emission at 550 nm on an Envision microplate analyzer (PE 2102-8340, PerkinElmer Life Sciences).
(In general: Alpha assays give light when donor and acceptor beads are brought close together.)

The next series concerns the target T4, FXR-LBD (Homo sapiens, UniProt Q96RI1).
T4 construct: 50 μmol/L Biotin-DC646 were incubated with 50 μmol/L purified FXR-LBD
T4 sequence (Q96RI1 262-486 limits assumed): T3 sequence (Q96RI1 262-486 limits assumed)
Nature of the series: Co-immunoprecipitation of BIOTIN-DC646 and purified FXR-LBD. Format: binding. The note with it: BIOTIN-DC646 50 μmol/L with purified FXR-LBD. As to the method: For the co-immunoprecipitation of Biotin-DC646 and FXR-LBD, 50 μmol/L Biotin-DC646 were incubated with 50 μmol/L purified FXR-LBD at room temperature for 2 h at indicated conditions. These mixtures were then immunoprecipitated with beads which had been incubated with anti-His antibody (12698S, Cell Signaling Technology) at room temperature for 1 h. Immunoblotting was performed using the anti-BIOTIN antibody (sc-101339, Santa Cruz Biotechnology).

`CC(C)C[C@@H]1NC(=O)[C@@H]2CN(CCO2)c2cccc3c2c(cn3[Si](C(C)C)(C(C)C)C(C)C)C[C@H](NS(=O)(=O)C(F)(F)F)C(=O)OCCCCNC(=O)[C@H](CC(C)C)NC(=O)[C@@H]2CN(CCO2)c2cccc3c2c(cn3[Si](C(C)C)(C(C)C)C(C)C)C[C@H](NS(=O)(=O)C(F)(F)F)C(=O)OCCCCNC1=O` [DC646, N,N'-((1^2R,1^4S,16^2R,16^4S,4R,13R,19R,28R)-13,28-diisobutyl-5,12,15,20,27,30-hexaoxo-2^1,17^1-bis(triisopropylsilyl)-2^1H,17^1H-6,21-dioxa-11,14,26,29-tetraaza-1(4,2),16(2,4)-dimorpholina-2,17(4,3)-diindolacyclotriacontaphane-4,19-diyl)bis(1,1,1-trifluoromethanesulfonamide)]: the Concentration in liver result in series [1] (1 h) was “BQL^$”; in series [1] (4 h), “BQL”; in series [1] (8 h), “BQL”; in series [1] (24 h) it was “BQL”. The Concentration in serum entry in series [1] (1 h) was “BQL^&”; in series [1] (4 h), “BQL”; in series [1] (8 h), “BQL”; in series [1] (24 h), “BQL”. Besides, the Concentration in intestine entry in series [1] (24 h) is “BQL^$”. Also, the tissue level at time at 1 h in series [1] (male, mouse, intestine, 1 h, read-out: Concentration in intestine) is 6350 ng/g. In addition, the tissue level at time at 4 h in series [1] (male, mouse, intestine, 4 h, read-out: Concentration in intestine) came out at 435 ng/g. Also, the tissue level at time at 8 h in series [1] (male, mouse, intestine, 8 h, read-out: Concentration in intestine) was found to be 72 ng/g. Besides, the inhibition at 10 µM at PPARδ came out at 18.9%; on PPARγ, 14%. The “Disruption of hFXRα-LBD-NcoR2 interaction induced by Ivermectin” value in series [2] is reported as “competitively disrupted”. In addition, the “Binding with FXR-LBD (co-immunoprecipitation)” value on FXR-LBD is reported as “directly bind”.

As usually defined, the inhibition is the percentage by which the read-out fell short of the control.
